Results from publication PMC7221740, “Cyclic Synthetic Peroxides Inhibit Growth of Entomopathogenic Fungus Ascosphaera apis without Toxic Effect on Bumblebees” (Molecules, 2020).
Values after ≈ are worked out from the molar mass of the structure shown.

Legend:
[1] = system: A. apis; design: method as in PMID 30862950; conditions: ref [54]; cited from earlier work
[2] = system: Ascosphaera apis; assay: Inhibition of radial growth of Ascosphaera apis mycelium in potato-saccharose agar; type: cell-based; conditions: 72 h; for inhibition at 30 µg/mL / EC50: Ascosphaera apis; for inhibition at 30 µg/mL / Mycelium Growth Inhibition (I), %: A. apis, concentration 30 mg/L, potato-saccharose agar, 25 °C; for inhibition at 30 µg/mL: read-out: Mycelium Growth Inhibition (I), %; for EC50: A. apis mycelium growth, read-out: EC50 (mg/L) ± SD, fungicidal activity
[3] = system: A. apis; design: method as in PMID 22263693; conditions: ref [55]; read-out: IC50 against A. apis; cited from earlier work
[4] = system: bumblebees Bombus terrestris L.; assay: Toxic effect on bumblebees (feeding with inverted sugar syrup); type: in vivo; conditions: concentration not given
Experimental: In the next step, we evaluated the toxicity of active peroxides 1–4, 6 towards bumblebees. Two approaches were used for this purpose. The first approach was a contact action of bumblebees with 30 mg/L solution of peroxide in water containing DMSO (5% vol.). The second approach was feeding of bumblebees with inverted sugar syrup containing peroxides 1–4, 6 (the concentration of peroxide was 30 mg/L) and DMSO (5% vol.). The mortality of bumblebees after their contact with solutions of peroxides 1–4, 6 was absent. […] However, after the consumption of sugar syrup containing difenoconazole or penconazole, the ability of bumblebees to fly was decreased by 1.4 times and 1.3 times, respectively (Figure 4). On average, bumblebees from the control group were in flight for 9 min 28 s. After the consumption of syrup with difenoconazole and penconazole (see Materials and methods), the time spent by insects in flight decreased to 6 min 36 s and 7 min 17 s, respectively.
Peroxide 1–4, 6 (0.3 mg or 3.0 mg) was added to 500 µL of DMSO, and the resulting solution was diluted with 60% inverted sugar syrup to 10 mL. After that, 30 mg/L or 300 mg/L solution of peroxide in inverted sugar syrup containing DMSO (5% vol.) was obtained. A solution of DMSO (500 µL) in 60% inverted sugar syrup was used as the control solution. […]

[5] = system: bumblebees Bombus terrestris L.; assay: Ability of bumblebees to fly; type: in vivo; conditions: for Ability of bumblebees to fly in the contact action test: peroxides 30 mg/L in water with DMSO (5% vol.); for Decrease of the ability of bumblebees to fly after consumption of sugar syrup: feeding, versus control group
[6] = system: bumblebees Bombus terrestris L.; assay: Toxic effect on bumblebees (contact action); conditions: concentration not given

| SMILES | inhibition at 30 µg/mL [2] | EC50 [2] | melting point | further results |
| --- | --- | --- | --- | --- |
| COc1ccc(C(=O)/C=C/c2ccc(O)cc2)c(O)c1CC=C(C)C [4-hydroxyderricin] |  |  |  | MIC against A. apis [1]: 6.25 µg/mL (≈ 18.5 µM) |
| C=CCC1(C(=O)OCC)CCC2(C)OOC1(C)O2 (centres unmarked) [Compound 1, Ethyl-2-allyl-1,5-dimethyl-6,7,8-trioxabicyclo[3.2.1]octane-2-carboxylate] | 94% | 4 ± 0.2 mg/L (≈ 15.6 µM) |  |  |
| CC12OOC(C)(OO1)C2C12CC3CC(CC(C3)C1)C2 (centres unmarked) [Compound 6, 7-(Adamantan-1-yl)-1,4-dimethyl-2,3,5,6-tetraoxabicyclo[2.2.1]heptane] | 94% | 1.6 ± 0.1 mg/L (≈ 6.01 µM) | 130 to 131 °C |  |
| COc1ccc(C23OOC4(C)OC(C)(CCC42)O3)cc1 (centres unmarked) [Compound 7, 3-(4-Methoxyphenyl)-6,7a-dimethyltetrahydro-3H,4H-3,6-epoxy[1,2]dioxolo[3,4-b]pyran] | 53% |  | 89 to 90 °C |  |
| C=CCC12CCC3(C)OC1(C)OOC2(C)O3 [Compound 8, 3a-Allyl-3,6,7a-trimethyltetrahydro-3H,4H-3,6-epoxy[1,2]-dioxolo[3,4-b]pyran] | 25% |  | 43 to 44 °C |  |
| CO/N=C(/C(=O)OC)c1ccccc1COc1ccccc1C [Kresoxim-methyl 10, Kresoxim-methyl] | < 100% | < 1 mg/L |  | Mycelium Growth Inhibition (I), % [2]: 88%; Mycelium Growth Inhibition (I), % ([2]; listed as Kresoxim-methyl): did not completely inhibit |
| CCCCCC(=O)O[C@H]1C(=O)c2c(O)cc(O)cc2O[C@@H]1c1ccccc1 [Pinobanksin-3-hexanoate] |  |  |  | IC50 [3]: 23 ± 2 µM |
| CC(C)(C)C(=O)C(Oc1ccc(Cl)cc1)n1cncn1 (centres unmarked) [Triadimefon 9, Triadimefon] | < 100% | 7.1 ± 0.8 mg/L (≈ 24.2 µM) |  | Mycelium Growth Inhibition (I), % [2]: 91% |
| CC1COC(Cn2cncn2)(c2ccc(Oc3ccc(Cl)cc3)cc2Cl)O1 (centres unmarked) [difenoconazole] |  |  |  | Bumblebee mortality after consumption of syrup with commercial fungicide [4]: had not increased; Ability of bumblebees to fly in the contact action test [5]: did not affect the ability to fly; Decrease of the ability of bumblebees to fly after consumption of sugar syrup [5]: 1.4 times; Bumblebee mortality in contact with commercial fungicide [6]: had not increased |
| CCCC(Cn1cncn1)c1ccc(Cl)cc1Cl (centres unmarked) [penconazole] |  |  |  | Bumblebee mortality after consumption of syrup with commercial fungicide [4]: had not increased; Ability of bumblebees to fly in the contact action test [5]: did not affect the ability to fly; Decrease of the ability of bumblebees to fly after consumption of sugar syrup [5]: 1.3 times; Bumblebee mortality in contact with commercial fungicide [6]: had not increased |
